Data on 34 compounds can be found in PMC5508670, “Conformationally restricted calpain inhibitors” (Chemical Science, 2015).

Series [1] has as its target Calpain-II. Also on record: method as in PMID 8692879. Conditions: cited from earlier work.
The target in series [2] is Calpain-I. On the set-up: method as in PMID 8692879. Conditions: cited from earlier work.
Series [3] is described as follows: Oxidation of sulfhydryl to disulfide in solution (UV-VIS / 1H-NMR). It is filed as physicochemical. On the procedure:
The rate of conversion of 3 to its disulfide form was dependent upon both the concentration of the compound and the nature of the solution. […] […] Compound 4 was then added to preformed crystals of PEF(S).

In series [4] the target is T1, calpain-I (Sus scrofa, UniProt P35750).
T1 construct: purchased CalBiochem
T1 sequence (P35750 1-714): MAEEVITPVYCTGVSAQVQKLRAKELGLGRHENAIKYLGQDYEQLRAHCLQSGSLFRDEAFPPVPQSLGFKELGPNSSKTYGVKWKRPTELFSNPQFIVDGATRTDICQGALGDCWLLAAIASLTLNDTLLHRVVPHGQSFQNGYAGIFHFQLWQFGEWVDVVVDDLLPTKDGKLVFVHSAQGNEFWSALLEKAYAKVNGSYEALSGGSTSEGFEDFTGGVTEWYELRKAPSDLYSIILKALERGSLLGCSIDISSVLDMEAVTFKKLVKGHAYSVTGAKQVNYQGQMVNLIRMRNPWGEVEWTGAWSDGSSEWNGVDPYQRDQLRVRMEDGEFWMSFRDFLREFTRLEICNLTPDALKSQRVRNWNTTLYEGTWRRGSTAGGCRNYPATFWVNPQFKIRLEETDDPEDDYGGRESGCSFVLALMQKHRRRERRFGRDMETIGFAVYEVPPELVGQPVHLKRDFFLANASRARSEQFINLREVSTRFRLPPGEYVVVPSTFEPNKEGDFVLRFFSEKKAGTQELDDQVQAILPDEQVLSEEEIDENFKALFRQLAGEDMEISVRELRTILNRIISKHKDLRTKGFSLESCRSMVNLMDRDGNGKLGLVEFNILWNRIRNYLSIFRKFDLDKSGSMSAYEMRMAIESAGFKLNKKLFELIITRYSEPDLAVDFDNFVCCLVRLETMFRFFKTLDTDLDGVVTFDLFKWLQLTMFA
T1 sequence (P04574 1-266): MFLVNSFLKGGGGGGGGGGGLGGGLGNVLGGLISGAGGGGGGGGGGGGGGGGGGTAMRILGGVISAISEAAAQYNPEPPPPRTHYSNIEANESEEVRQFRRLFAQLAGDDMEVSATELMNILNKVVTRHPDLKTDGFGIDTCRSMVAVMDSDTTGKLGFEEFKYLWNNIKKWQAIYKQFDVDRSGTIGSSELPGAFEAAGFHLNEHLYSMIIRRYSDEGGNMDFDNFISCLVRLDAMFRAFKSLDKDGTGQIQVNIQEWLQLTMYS
In words: FRET-based calpain-I inhibition assay in the presence and absence of 10 mM DTT. It is filed as biochemical, porcine. On the procedure: The inhibitory properties of a series of oxidised and reduced α-mercaptoacrylic acid derivatives towards calpain-I (Fig. 4) were assessed in a FRET-based assay in the presence and absence of 10 mM dithiothreitol (DTT).[24],[25] To ensure complete oxidation, compounds were left in the assay solution for 3 hours prior to performing the assay (vide supra and ESI ^†). In the absence of inhibitors there was no observable difference in enzyme activity when assayed under both oxidising and reducing conditions.
Protein Expression, Crystallisation and FRET Based Inhibition Assay Methods […]
FRET based Inhibition Assay
This assay employed a peptide from the calpain-1 substrate α-spectrin, with fluorescein at one terminus internally quenched by DABCYL and the other (H2N-K(FAM)-EVYGMMK(DABCYL)-OH).11 Cleavage by calpain-1 occurs between the Tyr-Gly residues and results in enhanced fluorescence as the quenching effect is relieved. The assays were performed using purified porcine Calpain-1 (CalBiochem, 10 nM) and fluorogenic calpain-1 substrate (Merck, 1 µM) in an assay buffer consisting of HEPES (10 mM) pH 6.8; EDTA (0.5 mM); bovine serum albumin (0.1%). The assay was performed using a fluorescent plate reader (BMG Optistar) in an assay volume of 100 µl at a temperature of 37°C, using an excitation band pass filter centred at 485 nm and emission detected at 520 nm. The compounds to be tested for inhibition were added to the assay mixture before the reaction was initated by the addition of CaCl2 (5 mM).
None of the compounds had significant fluorescence at this wavelength and correction for this was unnecessary. The compounds were dissolved in DMSO at 50 mM and diluted into assay buffer to give range of concentrations from 5 nM to 50 µM. In each assay run, the effect of DMSO alone over the concentration used was also measured. Although there was no effect of DM SO at lower concentrations, in some assay runs, DM SO at 0.005%-0.5% produced some inhibitory effect. This DM SO effect (which was only relevant for compounds with poor inhibitory ability) was subtracted before constructing the inhibition curves.
FRET based inhibition assay (DTT addition)
The same procedure was used as described above except with assay buffer containing HEPES (10 mM) pH 6.8; EDTA (0.5 mM); bovine serum albumin (0.1%) and DTT (10 mM).

The mark [5] stands for this setting: presence of 10 mM DTT (reduced sulfhydryl form), read-out: IC50, Sulfhydryl.
[6] abbreviates: absence of DTT (oxidised disulfide form), compounds left 3 hours in assay solution before the assay, read-out: IC50, Disulfide.
Setting [7] is: absence of DTT (disulfide form), read-out: IC50 of oxidised compounds.
Where [8] appears, read: thioethers, 10 mM DTT, read-out: IC50 (DTT).
The mark [9] stands for this setting: thioethers, no DTT, read-out: IC50 (No DTT).
Setting [10] is: thioethers, DTT had no effect on the potency, read-out: IC50.

Like-named read-outs stand apart in the source and are kept apart here.

Broadly, the Ki is the dissociation constant of the complex between target and ligand, obtained from inhibition or displacement. In general, IC50 refers to the concentration that gives 50% inhibition.

Take `O=C(O)/C(S)=C/c1ccc(I)cc1` [PD150606]: the inhibitory constant (Ki) was 370 nM in series [1] and 210 nM in series [2]. Consider `O=C(O)/C(S)=C/c1c[nH]c2ccc(F)cc12` [PD151746], for which the inhibitory constant (Ki) in series [1] was 5330 nM; in series [2], 260 nM. With `O=C(O)/C(S)=C/c1c[nH]c2cc(Br)ccc12` [compound 3, (Z)-3-(6-bromoindole-3-yl)-2-mercaptoacrylic acid], the “time to complete conversion to oxidised (disulfide) form” value in series [3] (100 μM in 100 mM KiPO4, pH 7.0, room temperature, UV-VIS) was 3 h. In series [3] (50 mM in DMSO, room temperature, 1H-NMR), the “time after which oxidation was complete” value was determined as 24 h. For the same compound, the IC50 in series [4] (setting [5]) stood at 500 nM.

Regarding `O=C(O)/C(=C/c1c[nH]c2cc(Br)ccc12)SS/C(=C\c1c[nH]c2cc(Br)ccc12)C(=O)O` [compound 4, (2Z,2′Z)-2,2′-disulfanediylbis(3-(6-bromoindol-3-yl)acrylic acid)], the IC50 in series [4] (disulfide prepared by iodine mediated oxidation and in situ prior to the assay, read-out: IC50 (dose response curve, Figure S8)) amounted to 200 nM. Turning to `O=C(O)/C(S)=C/c1ccccc1F` [compound 5], in series [4] (setting [5]), the IC50 was determined as 50000 nM. Turning to `O=C(O)/C(=C/c1ccccc1F)SS/C(=C\c1ccccc1F)C(=O)O` [compound 6], the half-maximal inhibitory concentration (IC50) in series [4] (setting [6]) worked out at 65 nM. Take `O=C(O)/C(S)=C/c1ccccc1Cl` [compound 7]: the 50% inhibitory concentration (IC50) in series [4] (setting [5]) is 60000 nM. Take `O=C(O)/C(S)=C/c1ccccc1Br` [compound 9]: the IC50 in series [4] (setting [5]) was determined as 50000 nM. As for `O=C(O)/C(=C/c1ccccc1Br)SS/C(=C\c1ccccc1Br)C(=O)O` [compound 10], the half-inhibitory concentration (IC50) in series [4] (setting [6]) was found to be 250 nM.

`O=C(O)/C(S)=C/c1cccc(F)c1` [compound 11]: the 50% inhibitory concentration (IC50) in series [4] (setting [5]) was 50000 nM. On the same count and under the same terms, the result for `O=C(O)/C(S)=C/c1cccc(I)c1` [compound 16] reads 3000 nM. As for `O=C(O)/C(=C/c1cccc(I)c1)SS/C(=C\c1cccc(I)c1)C(=O)O` [compound 17], the IC50 in series [4] (setting [7]) was determined as 25 nM. Consider `O=C(O)/C(S)=C/c1ccc(F)cc1` [compound 18], for which the IC50 in series [4] (setting [5]) stood at 50000 nM.

As for `O=C(O)/C(=C/c1ccc(F)cc1)SS/C(=C\c1ccc(F)cc1)C(=O)O` [compound 19], the IC50 in series [4] (setting [6]) was 50 nM.

As for `O=C(O)/C(=C/c1ccc(Cl)cc1)SS/C(=C\c1ccc(Cl)cc1)C(=O)O` [compound 21], the half-inhibitory concentration (IC50) in series [4] (setting [6]) is 10 nM. On to `O=C(O)/C(=C/c1ccc(I)cc1)SS/C(=C\c1ccc(I)cc1)C(=O)O` [compound 23], for which the IC50 in series [4] (setting [7]) worked out at 7.5 nM.

As for `O=C(O)/C(S)=C/c1c[nH]c2ccc(Cl)cc12` [compound 24], the half-inhibitory concentration (IC50) in series [4] (setting [5]) came out at 1500 nM. On to `O=C(O)/C(=C/c1c[nH]c2ccc(Cl)cc12)SS/C(=C\c1c[nH]c2ccc(Cl)cc12)C(=O)O` [compound 25], for which the IC50 in series [4] (setting [6]) was determined as 18 nM.

In the case of `O=C(O)/C(S)=C/c1c[nH]c2ccc(Br)cc12` [compound 26], the IC50 in series [4] (setting [5]) was determined as 500 nM. For the compound `O=C(O)/C(=C/c1c[nH]c2ccc(Br)cc12)SS/C(=C\c1c[nH]c2ccc(Br)cc12)C(=O)O` [compound 27], the IC50 in series [4] (setting [6]) stood at 10 nM. As for `O=C(O)/C(S)=C/c1c[nH]c2ccc(I)cc12` [compound 28], the IC50 in series [4] (setting [5]) came to 500 nM.

In the case of `O=C(O)/C(=C/c1c[nH]c2ccc(I)cc12)SS/C(=C\c1c[nH]c2ccc(I)cc12)C(=O)O` [compound 29], the 50% inhibitory concentration (IC50) in series [4] (setting [6]) worked out at 15 nM. In the case of `O=C(O)/C(S)=C/c1c[nH]c2cc(Cl)ccc12` [compound 30], in series [4] (setting [5]), the IC50 was 1000 nM. As for `O=C(O)/C(=C/c1c[nH]c2cc(Cl)ccc12)SS/C(=C\c1c[nH]c2cc(Cl)ccc12)C(=O)O` [compound 31], the IC50 in series [4] (setting [6]) came out at 28 nM. Consider `O=C(O)/C(S)=C/c1c[nH]c2cc(I)ccc12` [compound 34], for which the half-inhibitory concentration (IC50) in series [4] (setting [5]) was found to be 500 nM. Regarding `O=C(O)/C(=C/c1c[nH]c2cc(I)ccc12)SS/C(=C\c1c[nH]c2cc(I)ccc12)C(=O)O` [compound 35], the IC50 in series [4] (setting [6]) was 10 nM. Turning to `O=C(O)/C(S)=C/c1c[nH]c2c(Cl)cccc12` [compound 36], the IC50 in series [4] (setting [5]) turned out to be 4000 nM. Regarding `O=C(O)/C(=C/c1c[nH]c2c(Cl)cccc12)SS/C(=C\c1c[nH]c2c(Cl)cccc12)C(=O)O` [compound 37], the IC50 in series [4] (setting [6]) was 23 nM. `O=C(O)/C(S)=C/c1c[nH]c2c(I)cccc12` [compound 38]: in series [4] (setting [5]), the concentration for half-maximal inhibition (IC50) was 2000 nM. For the compound `O=C(O)/C(=C/c1c[nH]c2c(I)cccc12)SS/C(=C\c1c[nH]c2c(I)cccc12)C(=O)O` [compound 39], the half-maximal inhibitory concentration (IC50) in series [4] (setting [6]) was 20 nM. Consider `O=C(O)/C(=C/c1ccc(Br)cc1)CS/C(=C\c1ccc(Br)cc1)C(=O)O` [compound 40, (Z)-3-(4-Bromophenyl)-2-((((Z)-2-(4-bromophenyl)-1-carboxyvinyl)thio)methyl)acrylic acid], for which the concentration for half-maximal inhibition (IC50) in series [4] (setting [8]) and in series [4] (setting [9]) was 10000 nM throughout. `O=C(O)/C(=C/c1cccc(Cl)c1)CS/C(=C\c1ccc(Cl)cc1)C(=O)O` [compound 41, (Z)-3-(3-chlorophenyl)-2-((((Z)-2-(4-chlorophenyl)-1-carboxyvinyl)thio)methyl)acrylic acid]: the IC50 in series [4] (setting [8]), in series [4] (setting [9]) and in series [4] (setting [10]) was more than 100000 nM each time. Consider `O=C(O)/C(=C/c1cccc(Cl)c1)CS/C(=C\c1c[nH]c2ccc(Br)cc12)C(=O)O` [compound 42, (Z)-3-(5-bromoindol-3-yl)-2-(((Z)-2-carboxy-3-(3-chlorophenyl)allyl)thio)acrylic acid], for which the half-inhibitory concentration (IC50) in series [4] (setting [9]) was 2000 nM; in series [4] (setting [10]), 1800 nM.

On to `O=C(O)/C(=C/c1ccc(Br)cc1)CS/C(=C\c1c[nH]c2cc(Br)ccc12)C(=O)O` [compound 43, (Z)-3-(6-bromoindol-3-yl)-2-(((Z)-3-(4-bromophenyl)-2-carboxyallyl)thio)acrylic acid], for which the IC50 in series [4] (setting [8]) and in series [4] (setting [9]) was 10000 nM each time.
